Measured values reported in ChEMBL document CHEMBL1201862, “PubChem BioAssay data set” (2004).
The source made the active and inactive calls.

How the values were obtained:
[1] = tested on: BJ; assay: cytotoxicity toward BJ-TERT fibroblasts, dose response, cell-based, RAS-independent, luminescence (AID 1933); assay type: functional; details: Homo sapiens
[2] = cytotoxicity toward DRD oncogenic fibroblasts, dose response, cell-based, non-viral oncogenic, luminescence (AID 1934); assay type: functional; details: Homo sapiens
[3] = tested on: BJ; assay: cytotoxicity toward BJ-TERT-LT-ST fibroblasts, dose response, cell-based, RAS-independent, luminescence (AID 1935); assay type: functional; details: Homo sapiens;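 further: BJ fibroblasts immortalized with TERT plus LT and ST oncogenes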
[4] = tested on: BJ; assay: cells; assay type: functional, cell-based; details: Homo sapiens
[5] = target: T1, Long-chain-fatty-acid--AMP ligase FadD28 (Mycobacterium tuberculosis, UniProt P9WQ59); assay: Fluorescence polarization aasay to screen for inhibitors that compete for the binding of FadD28 to a bisubstrate Measured in Biochemical System Using Plate Reader - 2147-01_Inhibitor_Dose_CherryPick_Activity.; assay type: functional, Mycobacterium tuberculosis H37Rv
T1 sequence (P9WQ59 whole entry): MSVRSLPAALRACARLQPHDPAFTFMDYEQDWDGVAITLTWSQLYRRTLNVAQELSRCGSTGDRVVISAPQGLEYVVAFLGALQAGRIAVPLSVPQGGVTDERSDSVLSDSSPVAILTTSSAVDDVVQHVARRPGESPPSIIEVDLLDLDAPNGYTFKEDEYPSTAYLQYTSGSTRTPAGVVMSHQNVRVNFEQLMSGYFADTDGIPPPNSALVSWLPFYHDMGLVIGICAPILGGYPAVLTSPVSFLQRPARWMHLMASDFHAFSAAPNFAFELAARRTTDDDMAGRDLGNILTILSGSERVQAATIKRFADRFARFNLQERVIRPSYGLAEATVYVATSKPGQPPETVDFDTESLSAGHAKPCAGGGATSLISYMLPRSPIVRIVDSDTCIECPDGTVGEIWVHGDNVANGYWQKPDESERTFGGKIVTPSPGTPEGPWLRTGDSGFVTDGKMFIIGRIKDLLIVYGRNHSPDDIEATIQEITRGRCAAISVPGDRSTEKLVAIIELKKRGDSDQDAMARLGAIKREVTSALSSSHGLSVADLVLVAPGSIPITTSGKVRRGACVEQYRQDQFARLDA

[6] = target: T2, Protein skinhead-1 (Caenorhabditis elegans, UniProt P34707); assay type: functional
T2 sequence (P34707 whole entry): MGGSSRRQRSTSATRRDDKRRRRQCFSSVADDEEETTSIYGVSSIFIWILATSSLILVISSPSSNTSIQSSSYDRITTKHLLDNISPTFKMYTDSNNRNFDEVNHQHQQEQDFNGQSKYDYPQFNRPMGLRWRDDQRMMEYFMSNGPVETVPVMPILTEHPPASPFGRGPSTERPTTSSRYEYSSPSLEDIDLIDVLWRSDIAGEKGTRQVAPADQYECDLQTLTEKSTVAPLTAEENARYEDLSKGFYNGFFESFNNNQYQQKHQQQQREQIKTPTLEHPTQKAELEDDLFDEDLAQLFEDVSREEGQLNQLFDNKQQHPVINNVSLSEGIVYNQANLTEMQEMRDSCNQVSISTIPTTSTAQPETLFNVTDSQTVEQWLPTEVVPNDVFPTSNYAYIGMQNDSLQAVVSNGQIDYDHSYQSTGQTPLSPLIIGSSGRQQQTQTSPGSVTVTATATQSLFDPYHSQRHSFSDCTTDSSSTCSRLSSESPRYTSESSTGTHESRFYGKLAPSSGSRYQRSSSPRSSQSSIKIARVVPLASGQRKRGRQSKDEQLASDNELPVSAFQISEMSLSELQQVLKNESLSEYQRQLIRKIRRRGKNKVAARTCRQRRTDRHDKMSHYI

[7] = target: T3, Histone-lysine N-methyltransferase NSD2 (Homo sapiens, UniProt O96028); assay type: biochemical
T3 sequence (O96028 whole entry): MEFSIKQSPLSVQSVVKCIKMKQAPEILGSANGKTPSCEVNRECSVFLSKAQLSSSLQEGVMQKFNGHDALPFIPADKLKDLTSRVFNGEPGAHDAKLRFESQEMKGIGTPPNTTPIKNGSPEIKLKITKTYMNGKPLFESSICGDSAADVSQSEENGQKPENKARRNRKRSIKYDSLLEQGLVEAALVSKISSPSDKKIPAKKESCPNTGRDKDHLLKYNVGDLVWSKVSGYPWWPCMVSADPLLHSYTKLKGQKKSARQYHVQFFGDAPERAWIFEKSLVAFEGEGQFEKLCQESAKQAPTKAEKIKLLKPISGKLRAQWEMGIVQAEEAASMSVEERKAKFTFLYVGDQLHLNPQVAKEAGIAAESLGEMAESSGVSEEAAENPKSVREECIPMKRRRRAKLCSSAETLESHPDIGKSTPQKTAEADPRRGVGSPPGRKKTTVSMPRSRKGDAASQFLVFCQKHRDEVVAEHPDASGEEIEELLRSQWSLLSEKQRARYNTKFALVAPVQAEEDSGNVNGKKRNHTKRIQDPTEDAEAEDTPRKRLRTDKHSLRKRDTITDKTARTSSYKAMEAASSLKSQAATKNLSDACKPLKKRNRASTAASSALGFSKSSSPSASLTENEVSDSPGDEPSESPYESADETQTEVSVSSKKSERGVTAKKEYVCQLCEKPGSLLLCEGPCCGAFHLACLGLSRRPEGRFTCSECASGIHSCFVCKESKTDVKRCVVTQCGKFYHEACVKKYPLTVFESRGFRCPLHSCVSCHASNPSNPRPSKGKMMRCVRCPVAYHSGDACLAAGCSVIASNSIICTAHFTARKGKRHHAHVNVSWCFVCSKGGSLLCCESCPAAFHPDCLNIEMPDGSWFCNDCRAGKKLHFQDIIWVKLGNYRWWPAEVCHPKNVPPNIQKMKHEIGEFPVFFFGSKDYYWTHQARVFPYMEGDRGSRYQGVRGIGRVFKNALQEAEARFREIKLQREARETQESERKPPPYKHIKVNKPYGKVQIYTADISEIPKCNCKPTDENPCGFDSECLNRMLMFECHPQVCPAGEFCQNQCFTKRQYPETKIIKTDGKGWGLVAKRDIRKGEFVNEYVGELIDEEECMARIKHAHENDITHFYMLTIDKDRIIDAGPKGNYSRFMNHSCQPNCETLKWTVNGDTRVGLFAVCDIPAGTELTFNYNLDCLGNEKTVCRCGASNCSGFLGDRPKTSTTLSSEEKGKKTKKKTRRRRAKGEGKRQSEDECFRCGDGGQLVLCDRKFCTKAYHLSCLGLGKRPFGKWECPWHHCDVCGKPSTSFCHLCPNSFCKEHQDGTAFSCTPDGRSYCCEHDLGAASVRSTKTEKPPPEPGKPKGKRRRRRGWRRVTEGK

[8] = target: T4, Streptokinase A (Streptococcus pyogenes serotype M1, UniProt P10520); assay: S. pyogenes streptokinase expression inhibitors, potency, dose response, plasminogen activation absorbance, OD405 (AID 1914); assay type: functional, Streptococcus pyogenes M1 GAS;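 further: secreted streptokinase activity via plasminogen activation per viability signal from cell pellet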
T4 sequence (P10520 whole entry): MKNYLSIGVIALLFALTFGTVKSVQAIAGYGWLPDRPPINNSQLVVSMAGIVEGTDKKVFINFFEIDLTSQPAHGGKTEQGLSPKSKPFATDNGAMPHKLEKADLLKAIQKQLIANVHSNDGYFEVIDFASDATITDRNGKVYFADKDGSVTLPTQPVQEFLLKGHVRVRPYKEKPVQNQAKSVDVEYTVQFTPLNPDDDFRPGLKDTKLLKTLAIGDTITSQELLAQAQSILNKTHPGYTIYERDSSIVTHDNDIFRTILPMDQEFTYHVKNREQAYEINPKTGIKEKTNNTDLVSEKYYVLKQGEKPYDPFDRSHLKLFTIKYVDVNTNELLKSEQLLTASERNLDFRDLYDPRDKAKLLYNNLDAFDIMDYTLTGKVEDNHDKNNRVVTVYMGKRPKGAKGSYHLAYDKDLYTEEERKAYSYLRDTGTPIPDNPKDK

[9] = target: T5, Short transient receptor potential channel 4 (Mus musculus, UniProt Q9QUQ5); assay: mouse TRPC4 channel inhibitors, dose response, cell-based, HEK293 TRPC4/mu-opioid, Fluo-4 calcium (AID 434942); assay type: functional;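 further: potency of inhibitors blocking the TRPC4 calcium response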
T5 sequence (Q9QUQ5 whole entry): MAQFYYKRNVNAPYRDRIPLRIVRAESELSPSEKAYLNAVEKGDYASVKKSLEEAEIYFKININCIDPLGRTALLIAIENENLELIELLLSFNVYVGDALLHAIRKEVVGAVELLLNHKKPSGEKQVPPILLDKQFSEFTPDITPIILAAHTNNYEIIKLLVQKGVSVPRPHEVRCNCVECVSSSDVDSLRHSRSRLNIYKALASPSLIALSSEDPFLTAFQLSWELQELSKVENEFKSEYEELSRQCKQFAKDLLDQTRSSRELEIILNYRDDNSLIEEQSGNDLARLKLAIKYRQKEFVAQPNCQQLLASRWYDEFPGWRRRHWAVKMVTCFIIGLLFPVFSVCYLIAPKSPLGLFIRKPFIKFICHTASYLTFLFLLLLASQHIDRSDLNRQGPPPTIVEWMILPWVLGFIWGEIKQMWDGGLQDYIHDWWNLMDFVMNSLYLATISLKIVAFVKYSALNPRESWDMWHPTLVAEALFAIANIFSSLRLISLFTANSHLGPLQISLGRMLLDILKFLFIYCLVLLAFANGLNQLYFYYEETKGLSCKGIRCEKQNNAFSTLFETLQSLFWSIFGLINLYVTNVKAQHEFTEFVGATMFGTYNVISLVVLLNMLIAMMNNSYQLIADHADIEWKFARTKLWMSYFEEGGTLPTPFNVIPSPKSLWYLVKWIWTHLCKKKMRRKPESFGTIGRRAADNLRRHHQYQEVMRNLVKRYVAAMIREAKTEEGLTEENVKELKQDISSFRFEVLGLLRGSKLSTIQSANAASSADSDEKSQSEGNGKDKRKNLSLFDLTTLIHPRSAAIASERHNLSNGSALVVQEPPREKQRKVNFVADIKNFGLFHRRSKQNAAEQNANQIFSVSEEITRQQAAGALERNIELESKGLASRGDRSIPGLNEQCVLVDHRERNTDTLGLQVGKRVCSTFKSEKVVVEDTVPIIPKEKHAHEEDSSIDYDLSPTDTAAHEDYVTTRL

[10] = cells; assay type: functional, cell-based
[11] = cells; assay type: functional, cell-based; remark: listed apart in the source
[12] = A549 cell cytotoxicity, dose response, cytotoxicity control, plate reader, cherry-pick, antagonist series (AID 743412); assay type: functional, cell-based
[13] = inhibitors of intracellular T. cruzi replication, confirmation, NIH3T3 host cells, beta-gal luminescence (AID 2044); assay type: functional, cell-based;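 further: intracellular parasites grown in NIH/3T3 mouse fibroblasts as host cells; luminescent beta-galactosidase reporter signal from transgenic T. cruzi replicating inside host cells; inhibitors lower the luminescence signal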
[14] = cytotoxicity toward NIH3T3 fibroblasts, dose response, counter-screen, cell-based, ATP luminescence, mouse fibroblasts (AID 2010); assay type: functional;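 further: cells exposed to compound for about 90 hours before reading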
[15] = P. falciparum Dd2 growth inhibitors, dose response, SYBR Green, dry powder samples (AID 1159566); assay type: functional, cell-based;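 further: potency for growth inhibition with lower SYBR green DNA signal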
[16] = P. falciparum 3D7-ScDHODH growth inhibitors, dose response, SYBR Green, dry powder samples (AID 1159570); assay type: functional, cell-based;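 further: parasite growth measured after 72 hours of compound exposure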
[17] = HepG2 cell cytotoxicity, dose response, cytotoxicity control, cherry-picked samples (AID 1159577); assay type: functional, cell-based
[18] = HepG2 cell cytotoxicity, dose response, cytotoxicity control, plate reader, dry powder samples (AID 1159569); assay type: functional, cell-based;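 further: inhibitor potency with signal falling toward the positive control level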
[19] = P. falciparum Dd2 growth inhibitors, dose response, SYBR Green, cherry-picked samples (AID 1159567); assay type: functional, cell-based
[20] = P. falciparum ATP4 D1247Y mutant growth inhibitors, dose response, NITD609-resistant line, SYBR Green, dry powder (AID 1159571); assay type: functional, cell-based;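 further: parasites synchronized at ring stage by sorbitol before testing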

Cc1nc(N2CCCCC2)sc1C(=O)c1ccc(Cl)c([N+](=O)[O-])c1
EC50 [1]: 9.77 µM (active) | EC50 [2]: 15.6 µM (active) | EC50 [3]: > 75 µM (inconclusive) | EC50 [4]: > 150 µM (not active)

O=C(Nc1ccc(Cl)cc1)N[C@@H]1c2c(ccc3ccccc23)OC[C@@H]1CO
AC50 [5]: 85.5 µM (active)

CCn1c(CSc2nnc(-c3ccncc3)n2C)nc2cc(C(=O)O)ccc21
AC50 [5]: > 100 µM (inactive) | IC50 [6]: > 100 µM (inactive)

O=C(Cn1nnc(-c2ccc3c(c2)OCO3)n1)Nc1ccccc1C(=O)O
AC50 [5]: 32 µM (inactive)

CCN(CC)CCNC(=O)c1cc2cc(Br)ccc2s1
AC50 [7]: > 20 µM (inactive)

CN(C(=O)CSc1nc(-c2ccc(C(C)(C)C)cc2)c(C#N)c(=O)[nH]1)C1CCCCC1
EC50 [8]: > 150 µM (not active) | EC50 [9]: 9.44 µM (active) | AC50 [7]: 12.6 µM (active)

O=C(CSc1n[nH]c(-c2ccccc2)n1)NC(=O)NCc1ccco1
EC50 [10]: > 29.9 µM (inactive) | IC50 [11]: > 29.9 µM (inactive)

C[C@H](CO)N1C[C@H](C)[C@@H](CN(C)S(=O)(=O)c2cccs2)Oc2ccc(NC(=O)Nc3ccc(C(F)(F)F)cc3)cc2C1=O
AC50 [5]: > 100 µM (inactive)

C[C@@H]1CN([C@@H](C)CO)S(=O)(=O)c2ccc(C3=CCCC3)cc2O[C@H]1CN(C)C(=O)c1ccccc1
AC50 [12]: 38.9 µM (active)

COc1cc(/C=N/NC(N)=S)ccc1OCc1ccc(C)cc1
EC50 [13]: 0.566 µM (active) | AC50 [5]: 69.9 µM (active) | EC50 [14]: 8.5 µM (active)

COc1ccccc1C#Cc1ccc([C@@H]2[C@@H](CO)N(C(=O)C3CCCCC3)[C@H]2C#N)cc1
AC50 [15]: 0.872 µM (active) | AC50 [16]: 1.35 µM (active) | AC50 [17]: > 39 µM (inactive) | AC50 [18]: 16.4 µM (active) | AC50 [19]: 2.73 µM (active) | AC50 [20]: 1.06 µM (active)

COc1ccc(CN2CC3(C2)CN(C(=O)CN(C)C)[C@H](CO)c2[nH]c4cc(OC)ccc4c23)cc1
AC50 [15]: 1.64 µM (active) | AC50 [16]: 1.6 µM (active) | AC50 [17]: 35.4 µM (active) | AC50 [18]: 13.6 µM (active) | AC50 [19]: 2.87 µM (active) | AC50 [20]: 2.51 µM (active)

COc1ccccc1C#Cc1ccc2c(c1)[C@@H]1NCC[C@@H]1[C@H](CO)N2
AC50 [15]: 1.94 µM (active) | AC50 [16]: 3.15 µM (active) | AC50 [17]: > 39 µM (inactive) | AC50 [18]: 37.3 µM (active) | AC50 [19]: 2.56 µM (active) | AC50 [20]: 4.53 µM (active)

C[C@@H]1CN([C@@H](C)CO)C(=O)c2c(c3ccccc3n2C)-c2ccccc2CO[C@@H]1CN(C)Cc1ccc(Cl)c(Cl)c1
AC50 [15]: 1.11 µM (active) | AC50 [16]: 2.24 µM (active) | AC50 [17]: 22.3 µM (active) | AC50 [18]: 22.3 µM (active) | AC50 [19]: 1.34 µM (active) | AC50 [20]: 1.73 µM (active)
